For data set [1], the target named is T1, human mitochondrial RNA polymerase POLRMT (Homo sapiens, UniProt O00411).
T1 construct: purchased Indigo Biosciences MV100-40
Briefly: POLRMT primer extension (polymerase incorporation) assay. In kind it is biochemical. To be noted: single NTP 100 μM or 1 mM, 37° C., 30 min, IEX-HPLC fluorescence. An excerpt: Purified exonuclease activity-deficient human mitochondrial DNA polymerase POLG was obtained from the lab of Prof. William Copeland (National Institute of Environmental Health Science, Durham, NC, USA). Human mitochondrial POLRMT was purchased from Indigo Biosciences (Cat #MV100-40). Atto-425-labelled DNA and RNA primers were synthesized in house; DNA templates were obtained from IDT.
The assays are designed for single NT addition on appropriate template/primer sets: • Atto-425 labeled primers allow for high sensitivity fluorescence detection with very low reaction volumes • Analytical IEX-HPLC with fluorescence detection for optimal resolution of primer-extended products—especially important in competition mixtures • Assays can be applied for the assessment of incorporation efficiency of novel chemistries.
Reaction conditions for the POLG incorporation assays were as follows: 100 nM DNA template, 100 nM 5′-Atto-425-labelled DNA primer, 40 units POLG, 100 μM or 1 mM NTP substrate in 20 mM Tris-HCl, pH 8.0, 2 mM β-mercaptoethanol, 0.1 mg/mL bovine serum albumin, 10 mM MgCl2. Reactions were incubated at 37° C. for 30 min. Reactions were quenched by heating the reaction mixture to 85° C. for 5 min. The reaction mixtures were diluted with water to a final primer concentration of approximately 2.5 nM and analysed by IEX-HPLC with an attached fluorescence detector (excitation wavelength: 436 nm, emission wavelength: 485 nm) and a Dionex BioLCDNAPac PA200 4×250 mm (8 μm particle size) column. […] The reaction mixtures were diluted with water to a final primer concentration of approximately 2.5 nM and analysed by IEX-HPLC as described above, except that the gradient was 35% to 40% buffer B in 16 min.
Recognition of 2′F—N6MeA NTPs by POLRMT and PolGamma: Incorporation of 2′F—N6MeA, RNA, and 2′-F-RNA NTP monomers were evaluated in a previously reported in vitro primer extension assays catalyzed by the human mitochondrial RNA polymerase POLRMT and human mitochondrial DNA polymerase PolGamma. […]

Data set [2] concerns the target T2, human mitochondrial DNA polymerase POLG (Homo sapiens, UniProt P54098, D198A/E200A).
T2 construct: lab of Prof; William Copeland (National Institute of Environmental Health Science, Durham, NC, USA)
T2 sequence (P54098 26-1239 D198A/E200A limits assumed): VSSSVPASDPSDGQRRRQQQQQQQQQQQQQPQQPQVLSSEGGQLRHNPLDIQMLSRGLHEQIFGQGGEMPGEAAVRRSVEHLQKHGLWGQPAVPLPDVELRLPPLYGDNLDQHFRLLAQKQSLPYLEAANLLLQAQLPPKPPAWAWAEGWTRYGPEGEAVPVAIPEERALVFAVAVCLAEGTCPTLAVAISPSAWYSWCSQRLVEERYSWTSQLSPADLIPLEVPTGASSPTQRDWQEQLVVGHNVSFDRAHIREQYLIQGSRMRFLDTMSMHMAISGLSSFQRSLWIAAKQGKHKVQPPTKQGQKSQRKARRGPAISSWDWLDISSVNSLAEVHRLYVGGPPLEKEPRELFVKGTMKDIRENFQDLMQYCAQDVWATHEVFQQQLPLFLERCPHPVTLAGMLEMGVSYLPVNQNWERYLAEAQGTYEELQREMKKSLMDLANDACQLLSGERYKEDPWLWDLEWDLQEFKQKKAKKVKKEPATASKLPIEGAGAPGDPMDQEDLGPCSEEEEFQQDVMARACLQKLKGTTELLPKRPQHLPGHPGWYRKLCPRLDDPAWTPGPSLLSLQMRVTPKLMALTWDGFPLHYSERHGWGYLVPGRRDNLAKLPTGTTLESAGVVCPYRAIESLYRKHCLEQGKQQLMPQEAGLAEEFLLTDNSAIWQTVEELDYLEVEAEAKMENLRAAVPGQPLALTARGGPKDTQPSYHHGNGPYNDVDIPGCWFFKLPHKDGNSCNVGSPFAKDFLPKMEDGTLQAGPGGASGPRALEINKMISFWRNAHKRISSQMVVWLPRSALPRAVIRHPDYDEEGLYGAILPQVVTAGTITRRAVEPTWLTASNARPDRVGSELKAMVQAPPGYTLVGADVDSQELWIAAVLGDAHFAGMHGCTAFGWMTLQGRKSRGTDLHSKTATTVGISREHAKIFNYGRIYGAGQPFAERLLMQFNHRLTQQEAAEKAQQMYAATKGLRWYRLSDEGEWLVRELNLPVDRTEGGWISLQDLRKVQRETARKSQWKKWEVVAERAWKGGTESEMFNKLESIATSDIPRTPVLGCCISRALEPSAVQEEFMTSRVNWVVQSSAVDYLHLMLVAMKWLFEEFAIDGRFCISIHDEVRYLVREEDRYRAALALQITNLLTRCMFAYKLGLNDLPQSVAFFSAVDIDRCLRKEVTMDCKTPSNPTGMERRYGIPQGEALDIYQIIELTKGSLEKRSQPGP
The experiment in a line: POLG (Pol-γ) primer extension (polymerase incorporation) assay. To be noted: single NTP 100 μM or 1 mM, 37° C., 30 min, IEX-HPLC fluorescence. In kind it is biochemical. The protocol:
Purified exonuclease activity-deficient human mitochondrial DNA polymerase POLG was obtained from the lab of Prof. William Copeland (National Institute of Environmental Health Science, Durham, NC, USA). Human mitochondrial POLRMT was purchased from Indigo Biosciences (Cat #MV100-40).
Buffer A was 20 mM sodium phosphate, 15% ACN, pH 11; and buffer B was 20 mM sodium phosphate, 15% ACN, 1 M NaBr, pH 11. […] Briefly, a 5′-fluorescently labeled primer and template were incubated […], and the primer extension reaction was monitored via fluorescence detection ion-exchange high-performance liquid chromatography.

The test system of the next data set is adenosine deaminase. The experiment in a line: Adenosine deaminase assay in human liver S9 fractions. The format is in vitro ADME. To be noted: 1 μM nucleoside, 1 mg/mL human liver S9, pH 7.4, with/without 1 mM NADPH, up to 2 hours, LC-MS. The text has this: In the adenosine deaminase assays, 2′-fluoroadenosie was used as a positive control for the deaminase activity: […]

The structures appear in SMILES notation.

T1 sequence (O00411 42-1230): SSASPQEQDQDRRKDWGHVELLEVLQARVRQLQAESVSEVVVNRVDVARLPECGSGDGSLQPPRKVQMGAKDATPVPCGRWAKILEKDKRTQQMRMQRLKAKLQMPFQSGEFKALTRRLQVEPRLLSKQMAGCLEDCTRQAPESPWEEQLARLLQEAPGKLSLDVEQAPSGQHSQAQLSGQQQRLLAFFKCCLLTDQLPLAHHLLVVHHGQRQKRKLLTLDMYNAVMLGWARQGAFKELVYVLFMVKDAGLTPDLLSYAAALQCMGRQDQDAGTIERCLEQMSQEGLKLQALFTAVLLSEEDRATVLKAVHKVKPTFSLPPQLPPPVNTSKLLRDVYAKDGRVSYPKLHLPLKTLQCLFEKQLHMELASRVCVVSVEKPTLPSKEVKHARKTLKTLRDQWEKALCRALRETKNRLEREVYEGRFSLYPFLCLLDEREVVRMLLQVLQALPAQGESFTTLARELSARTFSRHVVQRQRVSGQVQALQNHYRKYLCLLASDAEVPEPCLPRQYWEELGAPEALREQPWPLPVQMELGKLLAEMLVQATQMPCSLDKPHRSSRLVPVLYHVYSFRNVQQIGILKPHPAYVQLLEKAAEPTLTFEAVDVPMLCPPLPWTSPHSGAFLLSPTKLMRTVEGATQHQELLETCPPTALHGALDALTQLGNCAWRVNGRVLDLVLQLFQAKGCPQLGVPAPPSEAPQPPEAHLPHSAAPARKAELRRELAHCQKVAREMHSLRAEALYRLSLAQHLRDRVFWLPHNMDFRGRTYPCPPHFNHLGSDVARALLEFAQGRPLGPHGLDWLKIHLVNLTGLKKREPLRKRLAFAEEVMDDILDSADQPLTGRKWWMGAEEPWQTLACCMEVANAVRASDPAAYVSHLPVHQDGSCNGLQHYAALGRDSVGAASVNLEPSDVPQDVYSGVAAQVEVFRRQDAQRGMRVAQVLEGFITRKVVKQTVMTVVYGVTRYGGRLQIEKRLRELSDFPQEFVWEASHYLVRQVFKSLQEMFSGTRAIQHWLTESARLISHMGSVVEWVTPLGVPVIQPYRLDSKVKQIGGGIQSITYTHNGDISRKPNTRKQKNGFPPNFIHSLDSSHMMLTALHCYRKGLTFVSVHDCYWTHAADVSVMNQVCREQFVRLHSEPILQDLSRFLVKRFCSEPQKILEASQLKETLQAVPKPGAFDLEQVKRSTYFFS

With `CNc1ncnc2c1ncn2[C@@H]1O[C@H](COP(=O)(O)OP(=O)(O)OP(=O)(O)O)[C@@H](O)[C@H]1F` [2′Fluoro-N6Methyl-Atp triphosphate, ((2R,3R,4R,5R)-4-fluoro-3-hydroxy-5-(6-(methylamino)-9H-purin-9-yl)tetrahydrofuran-2-yl)methyl triphosphate], the “PolRMT Incorporation” value is “Yes” in data set [1] and “good substrate” in data set [1] (listed as 2′F—N6MeA NTP). Moreover, the results for the “Pol-γ Incorporation” value in data set [2] and in data set [2] (listed as 2′F—N6MeA NTP) were “Yes” and “good substrate”, respectively.

As for `Nc1ncnc2c1ncn2[C@@H]1O[C@H](COP(=O)(O)OP(=O)(O)OP(=O)(O)O)[C@@H](O)[C@H]1O` [rATP, reference compound], the “PolRMT Incorporation” value in data set [1] is recorded as “efficiently incorporated”.

With `COC1C(O)[C@@H](CO)O[C@H]1n1cnc2c(NC(C)C)ncnc21` (stereo partly drawn) [Compound 45, (2R,5R)-2-(hydroxymethyl)-5-[6-(isopropylamino)purin-9-yl]-4-methoxy-tetrahydrofuran-3-ol], the “Deaminated metabolite (adenine to inosine conversion)” value in the data set on adenosine deaminase is given as “no deaminated metabolites were observed”.

Regarding `Nc1ncnc2c1ncn2[C@@H]1O[C@H](CO)[C@H](O)C1F` (stereo partly shown) [2′-fluoro-adenosine, reference compound], the “Deaminated metabolite (adenine to inosine conversion)” value in the data set with adenosine deaminase is recorded as “formation of deaminated metabolite”.

(Values after patent US20240116973A1, “MODIFIED OLIGONUCLEOTIDES” (ALNYLAM PHARMACEUTICALS, INC., priority 2021, published 2024).)
